Experimental data published in paper PMC11177969, “Comprehensive Analyses of the Effects of the Small-Molecule Inhibitor of the UHM Domain in the Splicing Factor U2AF1 in Leukemia Cells” (Research Square, 2024).
Where two headings read alike, the source gives them in different places. Values belong to the compound of their own block, whether it stands above or below them.

How the values were obtained:
[1] = biological target: T1, U2AF1-UHM (Homo sapiens, UniProt Q01081); assay: HTRF assay, inhibition of binding between U2AF1-UHM and U2AF2-ULM
T1 construct: we screened the CCG fragment library from University of Michigan against the U2AF1-UHM domain using the Thermal Shift Assay (TSA)
T1 sequence (Q01081 65-147 limits assumed): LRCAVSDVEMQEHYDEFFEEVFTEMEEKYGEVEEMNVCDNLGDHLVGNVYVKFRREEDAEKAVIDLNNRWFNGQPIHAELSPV
From the text: TSA data provided no information of the binding site in U2AF1-UHM. To identify the binding sites of both hits to U2AF1-UHM, we synthesized CCG211578 (named Hit1/SF1–8) and CCG210084 (named Hit2/9 in Fig.2C) and asked if they inhibited the binding between U2AF1-UHM and U2AF2-ULM using our previously developed HTRF assay.[42] […] The IC50 values of SF1–8 and Hit2 correlated with the ΔTm values observed in TSA. We have reported that the conserved Trp binding site in U2AF1-UHM dominated the binding affinity between U2AF2-ULM and U2AF1-UH.[42]

[2] = biological target: T2, SPF45-UHM (Homo sapiens, UniProt Q96I25); assay: HTRF assay; format: binding; settings: Fig. 2C; SD of 2 independent experiments in parentheses
T2 sequence (Q96I25 306-385 limits assumed): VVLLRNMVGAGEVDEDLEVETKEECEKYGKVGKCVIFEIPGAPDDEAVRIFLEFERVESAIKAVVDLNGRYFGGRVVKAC
From the text: (§1) To determine the selectivity of SF1–8 against other homologous UHM domains, we measured the IC50 values of SF1–8 to RBM39-UHM, SPF45-UHM and PUF60-UHM using the HTRF assay.[42] […] In the chemical synthesis (Scheme S1), methylation on the pyrazole group in SF1–8 can occur at the N8 or N9 position (Fig.2C). Although the NMR spectra can be used to infer the methyl group position on the pyrazole, we determined the crystal structure of a SF1–8 precursor to clearly confirm the methyl group is at N9 in SF1–8 (Fig.2C). To further probe the interaction of SF1–8 with U2AF1-UHM, we synthesized SF1–8 analogs and developed the structure activity relationship (SAR) (Fig.2C). […] A longer alkyl group was tolerated at the N8 position but not at the N9 position. […] The crystal structure of a 7c precursor experimentally determined from SCXRD again confirmed the location of the propyl group (Fig. 2C).

[3] = biological target: T3, RBM39-UHM (Homo sapiens, UniProt Q14498); assay: HTRF assay; format: binding; settings: Fig. 2C; SD of 2 independent experiments in parentheses
T3 sequence (Q14498 445-508 limits assumed): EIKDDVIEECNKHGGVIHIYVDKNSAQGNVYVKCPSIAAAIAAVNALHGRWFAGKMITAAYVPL
From the text: as §1

[4] = biological target: T4, PUF60-UHM (Homo sapiens, UniProt Q9UHX1); assay: HTRF assay; format: binding; settings: Fig. 2C
T4 sequence (Q9UHX1 462-549 limits assumed): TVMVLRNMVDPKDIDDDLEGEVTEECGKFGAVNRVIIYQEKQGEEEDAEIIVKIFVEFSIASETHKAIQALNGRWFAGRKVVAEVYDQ
From the text: as §1

[5] = tested on: K562-U2AF1^S34F; set-up: method as in PMID 33689684; settings: cited from earlier work
[6] = tested on: K562-U2AF1^S34F cells; assay: Western blots of select genes; format: cell-based; settings: western blot
From the text: To understand the underlying mechanisms of the differential effects of SF1–8 on K562-U2AF1^S34F, we performed an RNA-seq experiment on K562-U2AF1^S34F cells treated with SF1–8 and control (Fig.4). […] When the 99 genes were mapped to KEGG pathways, the top six enriched pathways were protein digestion and absorption, extracellular matrix-receptor interaction, focal adhesion, PI3K-Akt signaling pathway, human papillomavirus infection, and AGE-RAGE signaling pathway (Fig.S2). To determine if the protein levels of these genes were affected by their mRNA changes, we performed the western blots of select genes. […] Because of the role U2AF1 in RNA splicing, we asked if analysis of the isoform pattern changes may provide insight to explain the different observations between RNA-seq and western blot data. In the transcript analysis, we identified low FPKM numbers of three BCL2 transcripts (Fig.S3) that explained the relatively low BCL2 protein levels in K562. A significant increase of the BCL-2b transcript was also found. […] Besides BCL2, BCLXL (encoded by BCL2L1) and MCL1 have isoforms (BCL-XS and MCL-1S) that had apoptotic functions. K562 cells expressed only the anti-apoptotic MCL1 transcript and the expression was not affected by SF1–8 (not shown). […] Another frequently studied gene involved in apoptosis regulation is survivin.[48],[49]
Figure 4. RNA-seq experiment of K562-U2AF1^S34F cells treated with SF1–8 and the western blot of select genes. […] (C) Western blots of c-CBL, ATF3, and BCL-2 in K562-U2AF1^wt, K562-U2AF1^S34F treated with SF1–8. (D) Heatmap of top 99 differentially regulated genes in K562-U2AF1^S34F treated with SF1–8.

[7] = tested on: bone marrow cells from an MDS specimen that harbored U2AF1^S34F; assay: Toxicity in primary MDS cells; format: cell-based; settings: Homo sapiens, Bone marrow cell, U2AF1^S34F VAF 41%, read-out: viable cells
From the text: (§2) Previous studies that introduced U2AF1^S34F in lung epithelial (HBEC3kt)[43], leukemia (K562)[38],[44],[45], and iPSC[37] cell lines have validated the function of U2AF1^S34F in these engineered cell lines while mutation of Q157 is less studied. We therefore focused our study on U2AF1^S34F and examined the effects of SF1–8 on a panel of leukemia cell lines including K562, U937, HL60 with isogenic overexpression of U2AF1^wt or U2AF1^S34F, K562 with isogenic overexpression of SRSF2^wt or SRSF2^P95H, and K562 with Crispr/Cas9 edited SF3B1^wt or SF3B1^E700K (denoted as K562-U2AF1^wt, K562-U2AF1^S34F, U937-U2AF1^wt, U937-U2AF1^S34F, HL60-U2AF1^wt, HL60-U2AF1^S34F, K562-SRSF2^wt, K562-SRSF2^P95H, K562-SF3B1^wt, K562-SF3B1^E700K). […] The data obtained from the engineered leukemia cell lines prompted us to query the activity of SF1–8 in primary MDS cells.
(§3) Figure 3. Growth inhibition activities of SF1–8 in U2AF1, SF3B1, SRSF2 mutant, wild-type leukemia cell lines (A) Dose dependent growth inhibition of U2AF1^S34F, SF3B1^E700K, SRSF2^P95H mutant and isogenic wild-type cell lines by the treatment of SF1–8. (B) Titration of SF1–8 against K562-U2AF1^wt, K562-U2AF1^S34F, MV4–11, HL60 cells using the CellTiter-Glo assay. (C) Toxicity of SF1–8 in human primary MDS cells (U2AF1^S34F) and healthy bone marrow cells.

[8] = biological target: T1, U2AF1-UHM; assay: Thermal Shift Assay (TSA) fragment library screening; format: binding; settings: confirmatory screening in triplicate, read-out: ΔTm (melting temperature change) of U2AF1-UHM
Method: To develop a different targeting strategy, we assessed potential tractable binding sites in U2AF1 using computational analysis and determined that the UHM domain of U2AF1 was for identifying hits (Fig.S1).[42] To discover hits, we screened the CCG fragment library from University of Michigan against the U2AF1-UHM domain using the Thermal Shift Assay (TSA). An initial single concentration screening at 200 μM led to identify 149 compounds that gave positive shifts of the melting temperature (ΔTm) in U2AF1-UHM. These compounds were subject to a secondary confirmatory screening in triplicate at 200 μM.

[9] = tested on: MV-4–11; assay: Growth inhibition titration (CellTiter-Glo); format: cell-based; settings: Homo sapiens, MV4-11; native cell line carrying U2AF1^wt
From the text: as §2, §3

[10] = tested on: HL-60; assay: Growth inhibition titration (CellTiter-Glo); format: cell-based; settings: Homo sapiens, native cell line carrying U2AF1^wt
From the text: as §2, §3

[11] = tested on: HL60-U2AF1^wt; assay: Dose dependent growth inhibition; format: cell-based; settings: Fig. 3A
From the text: as §2, §3

[12] = tested on: U937-U2AF1^S34F; assay: Dose dependent growth inhibition; format: cell-based; settings: Fig. 3A
From the text: as §2, §3

[13] = tested on: K562-SRSF2^P95H; assay: Dose dependent growth inhibition; format: cell-based; settings: Fig. 3A
From the text: as §2, §3

[14] = tested on: K562-SF3B1^E700K; assay: Dose dependent growth inhibition; format: cell-based; settings: Fig. 3A
From the text: as §2, §3

[15] = tested on: K562-SF3B1^wt; assay: Dose dependent growth inhibition; format: cell-based; settings: Fig. 3A
From the text: as §2, §3

[16] = tested on: HL60-U2AF1^S34F; assay: Dose dependent growth inhibition; format: cell-based; settings: Fig. 3A
From the text: as §2, §3

[17] = tested on: U937-U2AF1^wt; assay: Dose dependent growth inhibition; format: cell-based; settings: Fig. 3A
From the text: as §2, §3

[18] = tested on: K562-SRSF2^wt; assay: Dose dependent growth inhibition; format: cell-based; settings: Fig. 3A
From the text: as §2, §3

[19] = tested on: K562-U2AF1^S34F; assay: Growth inhibition / cell viability (CellTiter-Glo); format: cell-based
From the text: as §2, §3

[20] = tested on: K562-U2AF1^wt; assay: Growth inhibition / cell viability (CellTiter-Glo); format: cell-based
From the text: as §2, §3

[21] = tested on: healthy control cells; assay: Toxicity in healthy control cells; format: cell-based, human; settings: as much as 10 μM
From the text: as §2, §3

[22] = tested on: bone marrow cells of healthy control; assay: Colony formation assay; format: cell-based, human; settings: 1 to 20 μM
From the text: as §2

[23] = Fig. 2C, SD of 2 independent experiments in parentheses, read-out: IC50 U2AF1
[24] = representative titration curves, Fig. 2B, read-out: IC50 against U2AF1-UHM

Compound: CCn1nc(C2(C)CCNCC2)cc1O [7b]
IC50 [1, 23]: 467 µM | IC50 [2]: 958 µM | IC50 [3]: > 1000 µM | IC50 [4]: 910 µM

Compound: CCCn1nc(C2(C)CCNCC2)cc1O [7c]
IC50 [1, 23]: 53.1 µM | IC50 [2]: 62.4 µM | IC50 [3]: 310 µM | IC50 [4]: 541 µM

Compound: CC(C)n1nc(C2(C)CCNCC2)cc1O [7d]
IC50 [1, 23]: 863 µM | IC50 [2]: 694 µM | IC50 [3]: 791 µM | IC50 [4]: 1090 µM

Compound: CCC1(c2cc(O)n(C)n2)CCNCC1 [7e]
IC50 [1, 23]: 383 µM | IC50 [2]: 519 µM | IC50 [3]: > 1000 µM | IC50 [4]: > 1000 µM

Compound: Cn1nc(O)cc1C1(C)CCNCC1 [8a]
IC50 [2]: 473 µM | IC50 [3]: > 1000 µM | IC50 [4]: 550 µM

Compound: CCn1nc(O)cc1C1(C)CCNCC1 [8b]
IC50 [1, 23]: 232 µM | IC50 [2]: 799 µM | IC50 [3]: > 1000 µM | IC50 [4]: > 1000 µM

Compound: CCCn1nc(O)cc1C1(C)CCNCC1 [8c]
IC50 [1, 23]: 34.1 µM | IC50 [2]: 362 µM | IC50 [3]: 386 µM | IC50 [4]: 621 µM

Compound: CC1(C)C2CCC(CN=C(N)CSS(=O)(=O)O)C1C2 (stereo not shown) [NSC194308]
fold lower IC50 value in K562-U2AF^S34F than in K562-U2AF1^wt [5]: 2–3 fold | selectivity between K562-U2AF1^S34F and K562-U2AF1^wt [5]: 2 fold

More lines, main results first:

IC50 [1, 23]: 71.6 µM | IC50 [2]: 354 µM | IC50 [3]: 395 µM | IC50 [4]: 459 µM
Compound: CC(C)n1nc(O)cc1C1(C)CCNCC1 [8d]

IC50 [1, 23]: 46.5 µM | IC50 [2]: 179 µM | IC50 [3]: 335 µM | IC50 [4]: 592 µM
Compound: CCC1(c2cc(O)nn2C)CCNCC1 [8e]

ΔTm at 200 µM [8]: 2.02 °C | IC50 [9]: > 100 µM | IC50 [10]: > 100 µM | IC50 ([19]; dose titration, CellTiter-Glo): 1.98 µM | IC50 [1, 23]: 59.33 ± 0.02 µM | selectivity against three other UHM domains ([1]; U2AF1-UHM vs RBM39-UHM, SPF45-UHM, PUF60-UHM): 4–12 fold | IC50 [1, 24]: 59.3 µM | IC50 [2]: 748 µM | IC50 [3]: 221 µM | IC50 [4]: 523 µM
Compound: Cn1nc(C2(C)CCNCC2)cc1O [SF1–8]
ATF-3 protein level [6]: increase of ATF-3 was confirmed | BCL2 protein level [6]: decreased BCL2 | c-CBL protein level [6]: no change of c-CBL | viability at 10 µM [7]: 20% | effect on cell viability [11]: reduced cell viability | effect on cell viability [12]: no activity | effect on cell viability [13]: no activity | effect on cell viability [14]: selectively decreased the viability | effect on cell viability [15]: but not their isogenic wild-type cells | effect on cell viability [16]: reduced cell viability | effect on cell viability [17]: no activity | effect on cell viability [18]: no activity | effect on cell viability ([19]; Fig. 3A): selectively decreased the viability | effect on cell viability ([20]; Fig. 3A): but not their isogenic wild-type cells | activity in dose titration ([20]; dose titration, CellTiter-Glo): no activity | effect on viable cells [21]: did not significantly decrease 20% of viable cells | toxicity in colony formation assay [22]: no significant toxicity

ΔTm at 200 µM [8]: 1.5 °C | IC50 [1, 23]: 343 ± 62.4 µM | IC50 [1, 24]: 328 µM | IC50 [2]: > 1000 µM | IC50 [3]: 686 µM | IC50 [4]: 992 µM
Compound: CC1(c2cc(O)[nH]n2)CCNCC1 [compound 9]
